Source: US20240150293A1, “SPIROCYCLOHEXANE DERIVATIVES, PHARMACEUTICAL COMPOSITIONS CONTAINING THEM AND THEIR USES AS ANTI-APOPTOTIC INHIBITORS” (LES LABORATOIRES SERVIER, priority 2021, published 2024)
Where two headings read alike, the source gives them in different places.

Columns and labels:
[1] = test system: NCI-H929 cell lines; experiment: In vitro cytotoxicity, CellTiter-Glo (CTG) assay (Example B, Method B); type: cell-based; conditions: NCI-H929 cells, 48 h incubation, read-out: C50
Method in brief: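 NCI-H929 cells exposed to an 11-point compound series from 10 mM DMSO stocks (top final 30 μM) for 48 h at 37° C., 5% CO2. Viability measured as ATP by CellTiter-Glo luminescence; C50 is the concentration giving 50% cellular viability.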

[2] = test system: AMO-1 multiple myeloma xenograft; experiment: Quantification of the cleaved form of PARP in vivo, per os (Example C); parameters: species or system SCID mice; conditions: single dose per os, tumors recovered 16 hours after dosing
Procedure: The ability of the compounds of the invention to induce apoptosis was evaluated in vivo using the AMO-1 multiple myeloma xenograft.
1×10^7 cells were subcutaneously grafted into immunosuppressed SCID mice. 12-14 days later, when tumors had reached the appropriate volume, mice (3 per group) were treated once with the various compounds (per os, HEC 1%/Tween 80 99:1). Tumor samples were recovered 16 hours after dosing and lysed. Cleared lysates were used for cleaved PARP quantification (as a marker of apoptosis induction) using the Meso Scale Discovery (MSD) Elisa platform test. Results are expressed as the ratio between cleaved PARP in treated mice over control mice.

[3] = molecular target: Cy5-labelled Mcl1 (amino acids 171-321) C286S protein (UniProtKB Q07820) (Homo sapiens (Human), UniProt Q07820, C286S); experiment: Inhibition of Mcl-1 by the fluorescence quenching assay (Example A, Method B); type: binding
Cy5-labelled Mcl1 (amino acids 171-321) C286S protein, sequence (Q07820 171-321 C286S): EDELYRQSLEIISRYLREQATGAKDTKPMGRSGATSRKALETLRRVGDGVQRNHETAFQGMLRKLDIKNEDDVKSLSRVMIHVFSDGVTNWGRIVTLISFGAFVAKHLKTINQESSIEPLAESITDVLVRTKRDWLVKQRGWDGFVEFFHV
Method in brief: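 Cy5-labelled Mcl1 171-321 C286S (1 nM) quenched by TQ5WS-labelled PUMA peptide (10, 20 or 400 nM); displacement raises fluorescence (Ex 620/Em 680 nm). Buffer 10 mM HEPES, 150 mM NaCl, 0.05% Tween 20, pH 7.4, 5% DMSO; 2 h at room temperature, 11-point curves, IC50 converted to Ki (cKi/eKi).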

[4] = test system: AMO-1 multiple myeloma xenografts; experiment: Anti-tumor activity in vivo (Example D); parameters: species or system SCID mice
Procedure: The anti-tumor activity of the compounds of the invention was evaluated using AMO-1 multiple myeloma xenografts.
1×10^7 cells were subcutaneously grafted into immunosuppressed SCID mice. 7-10 days later, when the tumor mass had reached an average volume of about 150 mm^3, mice were treated with the various compounds once a week for 2 weeks (per os, HEC 1%/Tween 80 99:1). Tumor size was measured three times per week using electronic calipers.
At the end of the treatment cycle (d9), tumor growth inhibition (TGI) was calculated using the formula: […]
wherein DTV (Delta Tumor Volume) at Dx was calculated as follows: […]
(Tumor Volume at Dx)−(Tumor Volume at Randomization).

[5] = 30 mpk per os once a week for 2 weeks
[6] = 60 mpk per os once a week for 2 weeks

Structure (SMILES)	IC50 ([1]; Homo sapiens, NCI-H929, 48 h)	Ki [3]	further results
Cc1c(Cl)cccc1N[C@]1(C(=O)O)CC[C@]2(CC1)c1ccccc1C[C@@H]2C[C@@H](C)COc1ccnc2c1[C@H](C)CCC2 [Example 708, (1r,2′S,4S)-4-(3-chloro-2-methylanilino)-2′-[(2R)-2-methyl-3-{[(5R)-5-methyl-5,6,7,8-tetrahydroquinolin-4-yl]oxy}propyl]-2′,3′-dihydrospiro[cyclohexane-1,1′-indene]-4-carboxylic acid]	107 nM	0.362 nM	Cleaved PARP (fold to control) ([2]; 120 mpk): 12.6 fold to control
C[C@@H](COc1ccnc2c1[C@H](C)CCC2)C[C@H]1Cc2cc(F)ccc2[C@]12CC[C@@](Nc1cccc(Cl)c1)(C(=O)O)CC2 [Example 768, (1r,2′S,4S)-4-(3-chloroanilino)-5′-fluoro-2′-[(2R)-2-methyl-3-{[(5R)-5-methyl-5,6,7,8-tetrahydroquinolin-4-yl]oxy}propyl]-2′,3′-dihydrospiro[cyclohexane-1,1′-indene]-4-carboxylic acid]	49.6 nM	0.109 nM	Cleaved PARP (fold to control) ([2]; 30 mpk): 0.8 fold to control; Cleaved PARP (fold to control) ([2]; 60 mpk): 15.4 fold to control; Cleaved PARP (fold to control) ([2]; 120 mpk): 30.3 fold to control
C[C@@H](COc1ccnc2c1[C@H](C)CCC2)CN1Cc2cc(F)ccc2[C@]12CC[C@@](Nc1cccc(Cl)c1)(C(=O)O)CC2 [Example 41, (1s,4S)-4-(3-chloroanilino)-5′-fluoro-2′-[(2R)-2-methyl-3-{[(5R)-5-methyl-5,6,7,8-tetrahydroquinolin-4-yl]oxy}propyl]-2′,3′-dihydrospiro[cyclohexane-1,1′-isoindole]-4-carboxylic acid]	115 nM	–	% TGI (d9) [4, 5]: 1%; % TGI (d9) [4, 6]: 7.4%; % TGI (d9) ([4]; 120 mpk per os once a week for 2 weeks): 66.8%; Ki ([3]; Ki determined from IC50): 0.355 nM
CC(C)Oc1ccc2c(c1)[C@]1(CC[C@@](Nc3cccc(Cl)c3)(C(=O)O)CC1)[C@@H](C[C@@H](C)COc1ccnc3c1[C@H](C)CCC3)C2 [Example 786, (1r,2′S,4S)-4-(3-chloroanilino)-2′-[(2R)-2-methyl-3-{[(5R)-5-methyl-5,6,7,8-tetrahydroquinolin-4-yl]oxy}propyl]-6′-[(propan-2-yl)oxy]-2′,3′-dihydrospiro[cyclohexane-1,1′-indene]-4-carboxylic acid]	77.2 nM	0.0803 nM	% TGI (d9) [4, 5]: 43.2%; % TGI (d9) [4, 6]: 98.9%
COC(C)(C)c1ccc2c(c1)[C@]1(CC[C@@](Nc3cccc(Cl)c3)(C(=O)O)CC1)[C@@H](C[C@@H](C)COc1ccnc3c1[C@H](C)CCC3)C2 [Example 866, (1r,2′S,4S)-4-(3-chloroanilino)-6′-(2-methoxypropan-2-yl)-2′-[(2R)-2-methyl-3-{[(5R)-5-methyl-5,6,7,8-tetrahydroquinolin-4-yl]oxy}propyl]-2′,3′-dihydrospiro[cyclohexane-1,1′-indene]-4-carboxylic acid]	–	0.0213 nM	Cleaved PARP (fold to control) ([2]; 30 mpk): 1.2 fold to control; Cleaved PARP (fold to control) ([2]; 60 mpk): 6.5 fold to control; Cleaved PARP (fold to control) ([2]; 120 mpk): 6.3 fold to control
Cc1c(Cl)cccc1N[C@]1(C(=O)O)CC[C@]2(CC1)c1ccc(F)cc1CN2C[C@@H](C)COc1ccnc2c1[C@H](C)CCC2 [Example 52, (1s,4S)-4-(3-chloro-2-methylanilino)-5′-fluoro-2′-[(2R)-2-methyl-3-{[(5R)-5-methyl-5,6,7,8-tetrahydroquinolin-4-yl]oxy}propyl]-2′,3′-dihydrospiro[cyclohexane-1,1′-isoindole]-4-carboxylic acid]	454 nM	–	Ki ([3]; Ki determined from IC50): 0.583 nM
CCC1Oc2cc3c(cc2O1)[C@]1(CC[C@@](Nc2cccc(Cl)c2)(C(=O)O)CC1)[C@@H](C[C@@H](C)COc1ccnc2c1[C@H](C)CCC2)C3 (single isomer, unassigned) [Example 967]	137 nM	0.0263 nM	–
Cc1oc(=O)oc1COC(=O)[C@]1(Nc2cccc(Cl)c2)CC[C@@]2(CC1)c1cc3c(cc1C[C@@H]2C[C@@H](C)COc1ccnc2c1[C@H](C)CCC2)OCO3 [Example 938, (5-methyl-2-oxo-2H-1,3-dioxol-4-yl)methyl (1r,4S,6′S)-4-(3-chloroanilino)-6′-[(2R)-2-methyl-3-{[(5R)-5-methyl-5,6,7,8-tetrahydroquinolin-4-yl]oxy}propyl]-6′,7′-dihydro-2′H-spiro[cyclohexane-1,5′-indeno[5,6-d][1,3]dioxole]-4-carboxylate]	44.2 nM	2.43 nM	–
CC1CCNc2nccc(OC[C@H](C)C[C@H]3Cc4ccccc4[C@]34CC[C@@](Nc3cccc(Cl)c3)(C(=O)O)CC4)c21 (single isomer, unassigned) [Example 642]	–	0.724 nM	IC50 [1]: 460 nM
C[C@@H](COc1ccnc2c1[C@H](C)CCC2)CN1Cc2cc3c(cc2[C@]12CC[C@@](Nc1cccc(Cl)c1)(C(=O)O)CC2)OCO3 [Example 44, (1s,4S)-4-(3-chloroanilino)-6′-[(2R)-2-methyl-3-{[(5R)-5-methyl-5,6,7,8-tetrahydroquinolin-4-yl]oxy}propyl]-6′,7′-dihydro-2′H-spiro[cyclohexane-1,5′-[1,3]dioxolo[4,5-f]isoindole]-4-carboxylic acid]	53.4 nM	–	Cleaved PARP (fold to control) ([2]; 30 mpk): 0.7 fold to control; Cleaved PARP (fold to control) ([2]; 60 mpk): 0.7 fold to control; Cleaved PARP (fold to control) ([2]; 120 mpk): 1.4 fold to control; Ki ([3]; Ki determined from IC50): 0.126 nM
C[C@@H](COc1ccnc2c1[C@H](C)CCC2)C[C@H]1Cc2c(Cl)c3c(cc2[C@]12CC[C@@](Nc1cccc(Cl)c1)(C(=O)O)CC2)OCO3 [Example 888, (1r,4S,6′S)-8′-chloro-4-(3-chloroanilino)-6′-[(2R)-2-methyl-3-{[(5R)-5-methyl-5,6,7,8-tetrahydroquinolin-4-yl]oxy}propyl]-6′,7′-dihydro-2′H-spiro[cyclohexane-1,5′-indeno[5,6-d][1,3]dioxole]-4-carboxylic acid]	92.5 nM	0.25 nM	–
CCCC1COc2cc3c(cc2OC1)[C@]1(CC[C@@](Nc2cccc(Cl)c2)(C(=O)O)CC1)[C@@H](C[C@@H](C)COc1ccnc2c1[C@H](C)CCC2)C3 (single isomer, unassigned) [Example 990]	–	0.0575 nM	IC50 [1]: 353 nM
C[C@@H](COc1ccnc2c1[C@H](C)CCC2)C[C@H]1Cc2cc3c(cc2[C@]12CC[C@@](Nc1cccc(Cl)c1)(C(=O)O)CC2)O[C@H](C)[C@@H](C)O3 [Example 976, (1r,2′R,3′R,4S,7′S)-4-(3-chloroanilino)-2′,3′-dimethyl-7′-[(2R)-2-methyl-3-{[(5R)-5-methyl-5,6,7,8-tetrahydroquinolin-4-yl]oxy}propyl]-2′,3′,7′,8′-tetrahydrospiro[cyclohexane-1,6′-indeno[5,6-b][1,4]dioxine]-4-carboxylic acid]	72.5 nM	0.0163 nM	–
C[C@@H](COc1ccnc2c1[C@H](C)CC[C@H]2F)C[C@H]1Cc2cc3c(cc2[C@]12CC[C@@](Nc1cccc(Cl)c1)(C(=O)O)CC2)OCO3 [Example 961, (1r,4S,6′S)-4-(3-chloroanilino)-6′-[(2R)-3-{[(5R,8R)-8-fluoro-5-methyl-5,6,7,8-tetrahydroquinolin-4-yl]oxy}-2-methylpropyl]-6′,7′-dihydro-2′H-spiro[cyclohexane-1,5′-indeno[5,6-d][1,3]dioxole]-4-carboxylic acid]	98.8 nM	0.0308 nM	–
CC(=O)c1cc(C)c2c(c1)[C@]1(CC[C@@](Nc3cccc(Cl)c3)(C(=O)O)CC1)C(C[C@@H](C)COc1ccnc3c1[C@H](C)CCC3)C2 (single isomer, unassigned) [Example 757]	–	1.9 nM	IC50 [1]: 200 nM
CC1CCNc2nccc(OC[C@H](C)C[C@H]3Cc4ccccc4[C@]34CC[C@@](Nc3cccc(Cl)c3)(C(=O)O)CC4)c21 (single isomer, unassigned) [Example 641]	–	14 nM	IC50 [1]: 3030 nM
C[C@@H](COc1ccnc2c1[C@H](C)CCC2)C[C@H]1Cc2ccc(-c3cccn3C)cc2[C@]12CC[C@@](Nc1cccc(Cl)c1)(C(=O)O)CC2 [Example 881, (1r,2′S,4S)-4-(3-chloroanilino)-2′-[(2R)-2-methyl-3-{[(5R)-5-methyl-5,6,7,8-tetrahydroquinolin-4-yl]oxy}propyl]-6′-(1-methyl-1H-pyrrol-2-yl)-2′,3′-dihydrospiro[cyclohexane-1,1′-indene]-4-carboxylic acid]	153 nM	0.154 nM	–
